For this assay, the system named is T-cell clone SP2.2. Description: cells. It is filed as cell-based, human.

The values that follow come from patent EP0659438A1, “Conjugates consisting of peptidic T cell antigens and cell binding groups, and their use for therapy” (BOEHRINGER MANNHEIM GMBH, priority 1993, dated 1995).

Turning to `CCN(CC)CCCC(C)Nc1ccnc2cc(Cl)ccc12` (centres unmarked) [Chloroquine], the “inhibition of conjugate induced proliferation” value is given as “can inhibit” and the “reduction of P2-induced proliferation” value is given as 50%. For the same compound, under “Homo sapiens, T-cell, read-out: inhibition of conjugate induced proliferation”, the inhibition at 300 µM was 100%.

For the compound `CC(=O)N[C@@H](CC(C)C)C(=O)N[C@@H](CC(C)C)C(=O)N[C@H](C=O)CCCNC(=N)N` [Leupeptin], the “effect on free peptide induced proliferation” value is on record as “almost no effect” and the “inhibition of conjugate induced proliferation” value is recorded as “can inhibit”.
